Laboratory results: patent publication US20210195905A1, “NATURAL COMPLEX PRESERVATIVE AGENT FOR GRAIN OR GRAIN PRODUCT” (BST Inc., priority 2019, published 2021)

Assay: DPPH radical scavenging (antioxidant activity)
Type: biochemical
Conditions: 0.2 mM DPPH, 30 minutes in the dark, absorbance 517 nm

Structure (SMILES)	concentration for 50% scavenging of radical (SC50) [µg/mL]
COc1ccc(O)c(C(C)(C)C)c1 [BHA, Butylated Hydroxy Anisole]	58.83
O=C1O[C@H]([C@@H](O)CO)C(O)=C1O [L-ascorbic acid]	49.95
